In PMC9000415, “Discovery of Novel Epoxyketone Peptides as Lipase Inhibitors” (Molecules, 2022):

Legend:
[1] = target: T1, porcine PL (pancreatic lipase) (Sus scrofa, UniProt P00591); experiment: GC-FID based anti-lipase assay (phenyl acetate hydrolysis); type: biochemical; conditions: for IC50: porcine pancreatic lipase, phenyl acetate substrate, GC-FID, read-out: IC50 (nM) against PL
T1 construct: Lipase from porcine pancreas, Type II; purchased Sigma Aldrich L3126; host or cells: porcine pancreas (tissue-derived)
T1 sequence (P00591 1-450): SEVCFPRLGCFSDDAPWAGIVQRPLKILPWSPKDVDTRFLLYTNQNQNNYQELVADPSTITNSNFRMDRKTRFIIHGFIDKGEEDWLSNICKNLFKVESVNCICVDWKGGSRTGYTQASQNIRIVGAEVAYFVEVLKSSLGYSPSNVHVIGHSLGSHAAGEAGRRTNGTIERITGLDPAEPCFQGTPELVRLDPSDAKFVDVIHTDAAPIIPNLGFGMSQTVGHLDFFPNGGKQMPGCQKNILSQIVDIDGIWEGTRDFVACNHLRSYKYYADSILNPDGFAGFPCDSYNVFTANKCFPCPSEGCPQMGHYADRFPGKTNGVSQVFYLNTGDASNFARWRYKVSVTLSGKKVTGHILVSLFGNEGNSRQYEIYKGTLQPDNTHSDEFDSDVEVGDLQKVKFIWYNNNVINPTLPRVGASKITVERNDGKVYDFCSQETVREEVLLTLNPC
Description: All chemicals and solvents were purchased from commercial suppliers (Amman, Jordan) and used without further purification. Anhydrous solvents were distilled from sodium and benzophenone before use. NMR (The University of Jordan, Amman, Jordan) spectra were recorded on a Varian 500 MHz spectrometer (500 and 125 MHz for the ^1H and ^13C nuclei, respectively) using CDCl3 as solvents and spectra were referenced to residual solvent as internal standard (for CDCl3 δH 7.26 and δC 77.1). LC-HRMS data for analysis of compounds 3−13 were obtained on an Agilent 6239 HR-ESI-TOFMS (UCSD, San Diego, CA, USA) equipped with a Phenomenex Luna 5 µm C18 100 Å column (4.6 × 250 mm). LCMS data for purity analysis of the synthesized compounds 3−13 were obtained with a Thermo Finnigan Surveyor Autosampler-Plus/LC-PumpPlus/PDA-Plus system and a Thermo Finnigan LCQ Advantage Max mass spectrometer (monitoring m/z 150−2000 in positive ion mode) using a linear gradient of 30–100% H2O/acetonitrile over 30 min; flow rate of 0.9 mL/min (UCSD, San Diego, CA, USA). Semipreparative HPLC (UCSD, San Diego, CA, USA) purification was carried out using a Waters 515 with a Waters 996 photodiode array detector using Empower Pro software. […] Chemical shifts (δ) are given in parts per million (ppm) and coupling constants (J) are reported in Hertz (Hz). The compounds are named in accordance with IUPAC rules as applied by ChemBioDraw Ultra (version 20.1.1) (software provided by the University of Jordan, Amman, Jordan). GCMS analysis: Thermo Scientific Focus gas chromatography coupled to a flame ionization […] was used to analyze the samples. A total of 1.0 µL sample was injected into the Thermo Scientific Focus GC-FID equipped with a split/spitless injector (split ratio, 2.5). The column was HP-5 (DP-5) capillary column stationary phase. Helium was the carrier gas at a flow rate of 1.0 mL/min. Linear temperature program was applied from 100 to 250 °C at 5 °C/min. The specific run time of analysis for each sample was […]. The temperatures of the injector base and the detector were maintained at 250 °C, 250 °C respectively. Lipase from porcine pancreas, Type II, 100–650 units/mg protein (product# L3126) was purchased from Sigma Aldrich (Amman, Jordan).
All tested compounds were dissolved in DMSO to prepare a stock solution (of each compound) having a known concentration. A proper aliquot of each tasted compound was obtained by further dilution of the stock. Samples were prepared and analyzed for their phenyl acetate content by adopting an internal standard procedure. the sample analysis performed using GC-FID. For each sample, 50 µL of 2 mg/mL pancreatic lipase, phenyl acetate (1 mM), and 50 µL of each candidate inhibitor. […] Subsequently, the samples were left for overall time of 20 min vortex and centrifuged for approximately 3 min. For extraction of the phenyl acetate remain in the aqueous layer the nonpolar solvent chloroform containing the internal standard added, then vortex and centrifuged and the chloroform removed to another tube for the GC-FID analysis.
The linearity, RSD, LOD, and LOQ were evaluated for the method of analysis. […] The LOD and LOQ both was measured using the signal-to-noise method. The ratio of the analyte signal to the peak-to-peak noise signal around it was measured of (3:1) which is generally accepted signal-to-noise ratio (S/N) for the LOD estimation.

[2] = tested on: HepG2 hepatoma cell line; experiment: Cytotoxicity, MTT assay, HepG2; type: cell-based; conditions: Homo sapiens, 72 h exposure, read-out: HepG2 Cells IC50
Description: (§1) All the cell line that were used in this study are (CCD-1064SK) the human normal skin fibroblast and HepG2 hepatoma cell line. The CCD-1064SK and HepG2 cell line was purchased from American Type Culture Collection (ATCC, Manassas, VA, USA). Cells were cultured in Iscove’s medium as recommended from ATCC. Media was supplement with 10% heated fetal bovine serum, 1% of 2 Mm L-glutamine, and (100 IU/mL) penicillin/(100 ug/mL) streptomycin. According to the cells growth profile, cells were seeded with a density of 10 × 10^4 cell/well. Cell viability was determined by trypan blue exclusion using a hemocytometer. For the cytotoxicity assay, cells were washed with phosphate buffer saline (PBS). PBS was decanted and cells detached with 0.025% trypsin-EDTA (EuroClone). Media was added to a volume of 10 mL. The cell suspension was centrifuged at 1000 rpm for 10 min and the pellet was resuspended in 10 mL medium to make a single cell suspension. Viability of the cells was determined by trypan blue exclusion, and it exceeded 90% as counted in a hemocytometer. The cell suspension was diluted afterwards to give the optimal seeding density and 100 uL of the cell suspension was plated in a 96 well plate. Cells were cultured at 37 °C in a humidified atmosphere of 5% CO2. After 24 h the cells were treated with different concentrations of tested compounds, (each compound was initially dissolved in DMSO). Initially, 100 and 50 ug/mL of each extract were tested. The active compounds were those which gave less than 50% survival at exposure time 72 h. The final dilution for all prepared concentrations used for treating the cells contained not more than 0.01% of the initial solvent (DMSO), this concentration being used in the solvent control wells. At the end of the exposure time, cell growth was analyzed using the MTT assay. MTT assay: After 72 h of incubation, 15 µL of MTT stock solution (Promega) (5 mg/mL in sterile phosphate-buffered saline, pH 7.4) was added to each well. After the cells were incubated for 3 h in the presence of MTT, 100 µL of solubilizing stop solution was added to each well to solubilize the dark violet formazan crystals. The optical densities at 570 nm were then measured using a microplate reader. The results were expressed as a percentage of cell viability with respect to a control corresponding to untreated cells.

[3] = tested on: CCD-1064Sk fibroblast cell line; experiment: Cytotoxicity, MTT assay, fibroblasts; type: cell-based; conditions: Homo sapiens, 72 h exposure
Description: as §1

[4] = tested on: dietary fat absorption; conditions: therapeutic dose; cited from earlier work

Row | Compound | IC50 [1] | inhibition of PL at the highest concentration tested ([1]; 10 µM) | IC50 [2] | IC50 [3] | inhibition of dietary fat absorption [4]
1 | C=C(C)C(=O)[C@H](Cc1ccc(F)cc1F)NC(=O)OC(C)(C)C [Analogue 13, tert-butyl (S)-(1-(2,4-difluorophenyl)-4-methyl-3-oxopent-4-en-2-yl)carbamate] | > 10000 nM | did not inhibit | > 15 µM | > 15 µM | –
2 | C[C@]1(C(=O)[C@@H](N)Cc2ccc(F)cc2F)CO1 [Analogue 9, (S)-2-amino-3-(2,4-difluorophenyl)-1-((R)-2-methyloxiran-2-yl)propan-1-one] | 41.5 ± 7.1 nM | – | > 15 µM | > 15 µM | –
3 | CCCCCCCCCCC[C@@H](C[C@@H]1OC(=O)[C@H]1CCCCCC)OC(=O)[C@H](CC(C)C)NC=O [orlistat (1), orlistat] | – | – | – | – | approximately 30%
4 | CC(C)(C)OC(=O)N[C@@H](Cc1ccc(F)cc1)C(=O)[C@@]1(C)CO1 [Analogue 6, tert-butyl ((S)-3-(4-fluorophenyl)-1-((R)-2-methyloxiran-2-yl)-1-oxopropan-2-yl)carbamate] | 46.4 ± 3.7 nM | – | > 15 µM | > 15 µM | –
5 | CC(C)(C)OC(=O)N[C@@H](Cc1ccc(F)cc1F)C(=O)[C@@]1(C)CO1 [Analogue 5, tert-butyl ((S)-3-(2,4-difluorophenyl)-1-((R)-2-methyloxiran-2-yl)-1-oxopropan-2-yl)carbamate] | 29.4 ± 4.8 nM | – | > 15 µM | > 15 µM | –
6 | CC(C)(C)OC(=O)N[C@@H](Cc1ccccc1)C(=O)[C@@]1(C)CO1 [Analogue 7, tert-butyl ((S)-1-((R)-2-methyloxiran-2-yl)-1-oxo-3-phenylpropan-2-yl)carbamate] | 49.1 ± 11.4 nM | – | > 15 µM | > 15 µM | –
7 | CC(C)C[C@H](NC(=O)OC(C)(C)C)C(=O)[C@@]1(C)CO1 [Analogue 8, tert-butyl ((S)-4-methyl-1-((R)-2-methyloxiran-2-yl)-1-oxopentan-2-yl)carbamate] | 120 ± 15.2 nM | – | > 15 µM | > 15 µM | –
8 | C[C@]1(C(=O)[C@@H](N)Cc2ccccc2)CO1 [Analogue 10] | 73.1 ± 9.8 nM | – | > 15 µM | > 15 µM | –

The next lines start with results.

Row | IC50 [1] | inhibition of PL at the highest concentration tested ([1]; 10 µM) | Compound | IC50 [2] | IC50 [3] | inhibition of dietary fat absorption [4]
9 | 25 ± 1.1 nM | – | CCCCCC(=O)N[C@H](C(=O)N[C@@H](CCS(C)(=O)=O)C(=O)N[C@@H](CC(C)C)C(=O)[C@@]1(C)CO1)C(C)C [carmaphycin B (2), carmaphycin B, reference compound] | – | – | –
10 | 9.3 ± 2.5 nM | – | CCCCCCCCCCCC(=O)N[C@@H](CCCC)C(=O)N[C@@H](Cc1ccc(F)cc1F)C(=O)[C@@]1(C)CO1 [Analogue 4, N-((S)-1-(((S)-3-(2,4-difluorophenyl)-1-((R)-2-methyloxiran-2-yl)-1-oxopropan-2-yl)amino)-1-oxohexan-2-yl)dodecanamide] | 2.33 µM | > 15 µM | –
11 | 29 ± 4.2 nM | – | CC(C)(C)OC(=O)N[C@@H](Cc1ccc(F)cc1F)C(=O)[C@]1(C)CO1 [Analogue 11, tert-butyl ((S)-3-(2,4-difluorophenyl)-1-((S)-2-methyloxiran-2-yl)-1-oxopropan-2-yl)carbamate] | > 15 µM | > 15 µM | –
12 | 29.3 ± 2.4 nM | – | CCCCCCCCCCCC(=O)N[C@@H](Cc1ccc(F)cc1F)C(=O)[C@@]1(C)CO1 [Analogue 3, N-((S)-3-(2,4-difluorophenyl)-1-((R)-2-methyloxiran-2-yl)-1-oxopropan-2-yl)dodecanamide] | 2.6 µM | > 15 µM | –
